Assays:
tobacco seedlings = assay: Ethylene-induced leaf yellowing (senescence) of young tobacco seedlings; assay type: in vivo, tobacco (Nicotiana tabacum var. 'Samsun'); details: for ethylene-induced senescence (leaf yellowing): ethylene 10 μL L^−1
Description: (§1) (1) Abscission—This is a very sensitive model system for studying the effects of plant hormones. Ethylene induces the process of abscission, while auxin delays it. In the laboratory the experimental system is based on plant organ explants, which include the abscission zone. Abscission is induced by exposure to ethylene and at the termination of the experiment the number of abscised organs, usually either leaf blades or petioles are counted and the fraction of abscission is calculated. In the case of fruit, the decrease in fruit retention force is analyzed. In cotton, when WS-CPD (the ethylene-action antagonist herein disclosed) is tested, the whole plants or explants are pretreated by spraying with the antagonist, dissolved in a phosphate buffer solution (10-20 mM, pH 7.0) including 0.1% commercially available Kinetic™ as surfactant, and left to incubate for a predetermined time, usually between 6 and 24 h. The plants or explants are then further exposed for 24 h to ethylene gas (5 to 20 μL L^−1). The plants or explants are then ventilated and incubated for the required time under controlled conditions. At the end of the experiment the percentage of abscission is determined. (2) Chlorophyll degradation—This is a standard model for studying senescence. Plant material (whole plants, excised leaves or leaf discs) are pretreated. In cotton, tobacco and wheat, when WS-CPD is tested, the whole plants or explants are pretreated by spraying with the antagonist, dissolved in phosphate buffer solution (10-20 mM, pH 7.0) including 0.1% commercially available Kinetic™ surfactant, and left to incubate for a predetermined time, usually between 6 and 241. […] At the end of the experiment a dimethylsulfoxide (DMSO) extract of the plant tissue is prepared, and the chlorophyll content of the extract is determined by spectrophotometric analysis. […] The extent of ethylene-induced epinasty of leaves is determined by measuring the change of the angle between the petiole and the stem shoot or blade. […]

wheat plants [1] = assay: Ethephon-induced flag leaf epinasty of wheat plants after spike heading; assay type: in vivo, wheat (Triticum turgidum var. 'Gdera'); details: WS-CPD 135 and 415 μg mL^−1 pretreatment; Ethephon 750 μL L^−1
Description: as §1, with “The plants or explants are then further exposed for 24 h to ethylene gas (5 to 20 μL L^−1). The plants or explants are then ventilated and incubated for the required time under controlled conditions.” left out, “determined.” for “determined. (2) Chlorophyll degradation—This is a standard model for studying senescence. Plant material (whole plants, excised leaves or leaf discs) are pretreated. In cotton, tobacco and wheat, when WS-CPD is tested, the whole plants or explants are pretreated by spraying with the antagonist, dissolved in phosphate buffer solution (10-20 mM, pH 7.0) including 0.1% commercially available Kinetic™ surfactant, and left to incubate for a predetermined time, usually between 6 and 241.”

wheat plants [2] = assay: Wheat grain yield at harvest, greenhouse, sandy soil, natural conditions; assay type: in vivo, wheat (Triticum turgidum var. 'Gdera')
pKa and ionisation state = assay type: physicochemical
Source text: The IR spectrum (FIG. 60), UV-VIS spectrum (FIG. 61), and potentiometric titration (FIG. 62) are all consistent with the structure given above for WS-CPD. The IR peak of WS-CPD at C1=1773 cm^−1, and the peak of the C═O stretch in the IR and the UV-VIS peak is λmax 206nm.
Thus, under the normal conditions of use, e.g., pH 7.6-7.8, more than 99% of the compound is present in the anion form. […] The XRD pattern was obtained in a Rigaku Ultima sealed tube theta-theta diffractometer operating at a power level of 1.6 kW, with a step size of 0.02°, angular range of 10-60°, and speed of 0.5°/min. Analysis of the XRD pattern was performed using the Jade 8 program (MDI, Inc.). From the diffraction pattern, it appears that the powdered material is not homogeneous, but rather that there appear to be three distinct structural forms present, namely, an amorphous form, a poor quality crystalline form, and a crystalline form. The presence of the amorphous form is indicated by the prominent diffuse peak centered at 2θ˜23°. Superimposed on this broad peak are a number of sharp peaks, indicating the presence of a crystalline form. […] The effective crystallite sizes of the crystalline form were calculated using the Scherrer formula and found to be in the range of 300-700 Å. […] The following volume fractions were measured: amorphous—57.5%; poorly crystalline—39.5%; crystalline—3%. […]

- pKa (pKa and ionisation state; ambient temperature): > 4.5
- fraction of the compound present in the anion form (pKa and ionisation state; pH 7.6-7.8): more than 99%
Compound: O=C([O-])CCC1=CC1.[Na+] [WS-CPD, 3-cyclopropyl-1-enyl-propanoic sodium salt]
- ethylene-induced senescence (leaf yellowing) (tobacco seedlings; WS-CPD 14 μg mL^−1): antagonized the ethylene-induced senescence only in mature leaves
- ethylene-induced senescence (leaf yellowing) (tobacco seedlings; WS-CPD 127 μg mL^−1, young leaves): slightly effective
- leaf yellowing (tobacco seedlings; WS-CPD 14 to 127 μg mL^−1, ethylene 20 μL L^−1): very significantly inhibited
- Ethephon-induced flag leaf epinasty (wheat plants [1]): partly protected
- effect of repeating sprays after stage II on yield (wheat plants [2]; WS-CPD 120 μg mL^−1, two to four sprays at 8 to 10 days intervals): no advantage
- grains weighting less than 35 mg/grain in the spikes of the treated plants (wheat plants [2]; WS-CPD 120 μg mL^−1, untreated plants more than 30% below this weight): almost no grains
- total yield increase (wheat plants [2]; one spray WS-CPD 120 μg mL^−1 at milky stage I, dry grain at harvest): ca. 18%

Reference: patent US9363996B2, “Compositions and method for blocking ethylene response in field crops using 3-(cy-clopropyl-l-enyl)-propanoic salt” (Yissum Research Development Company of the Hebrew …, priority 2009, dated 2016)
